Assay results reported in patent publication US20150065544A1, “THERAPEUTIC AGENT AND PREVENTIVE AGENT FOR DEMYELINATING DISEASE” (OSAKA UNIVERSITY, priority 2011, published 2015).

What was measured:
[1] = system: mouse experimental autoimmune encephalomyelitis (EAE) models; test: Clinical symptom scores in mouse experimental autoimmune encephalomyelitis (EAE) model; type: in vivo, mouse (SJL/J); details: Day 10 to Day 44 after immunization, versus tap water group 1, FIG. 1
Description: In mouse experimental autoimmune encephalomyelitis (EAE) models, which are MS animal models, the effects of 2-(3-cyano-4-isobutyloxyphenyl)-4-methyl-5-thiazolecarboxylic acid (Compound A) were investigated. Proteolipid protein (PLP) and complete Freund's adjuvant were administered subcutaneously to 8-week-old female SJL/J mice for immunization to induce EAE. The animals were divided into 3 groups; tap water, 1.5 mg/kg/day of Compound A and 0.75 mg/kg/day of Compound A were administered to the first, second and third group, respectively, by administration in drinking water from Day 10 to Day 44 after the immunization day. Neurological symptoms in the extremities were monitored daily from the day of immunization to Day 44 post-immunization, and the observations were scored as clinical symptoms (Vsevolod Smolianov, et al., Alteration of T cell cytokine production in PLPp-139-151-induced EAE in SJL mice by animmunostimulatory CpG Oligonucleotide. Journal of Neuroinflammation 2011, 8:59).

[2] = system: mouse experimental autoimmune encephalomyelitis (EAE) models; test: Histopathological examination of spinal cord tissues of EAE mice; type: in vivo, mouse (SJL/J); details: Day 16 post-immunization

## Cc1nc(-c2ccc(OCC(C)C)c(C#N)c2)sc1C(=O)O [Compound A, 2-(3-cyano-4-isobutyloxyphenyl)-4-methyl-5-thiazolecarboxylic acid]
[1]; group 2: 1.5 mg/kg/day in drinking water
  Clinical symptoms of EAE (neurological symptom scores): suppressed
[1]; group 3: 0.75 mg/kg/day in drinking water
  Clinical symptoms of EAE (neurological symptom scores): suppressed
[2]; conclusion from FIG. 2
  Inflammation in the spinal cord tissues (iNOS-positive cells, activated macrophages, activation of astrocytes): suppressed inflammation in the tissues
[2]; group 3: 0.75 mg/kg/day, versus tap water group 1, FIG. 2
  Staining of inducible nitric oxide synthase (iNOS), macrophages and astrocytes in spinal cord tissues: weak
